From ChEMBL document CHEMBL5380808, “Design, Synthesis, and Biological Activity of Marinacarboline Analogues as STAT3 Pathway Inhibitors for Docetaxel-Resistant Triple-Negative Breast Cancer” (J Med Chem, 2023)
Active and inactive are the calls of the source. The rule behind the calls is not given here.

What was measured:
[1] = Synergistic antiproliferative activity against docetaxel-resistant human MDA-MB-231-DTR cells assessed as combination index at 8 uM incubated for 72 hrs in presence of 1 uM of docetaxel by Chou-Talalay method; assay type: functional
[2] = test system: MDA-MB-231; experiment: Inhibition of cell invasion in docetaxel-resistant human MDA-MB-231-DTR cells at 3 to 6 uM incubated for 24 hrs by transwell invasion assay; assay type: functional, cell-based; conditions: dose 3-6 µM
[3] = test system: MDA-MB-231; experiment: Inhibition of cell migration in docetaxel-resistant human MDA-MB-231-DTR cells assessed as downregulation of N-cadherin expression level at 3 to 6 uM incubated for 24 hrs by Western blot analysis; assay type: functional, cell-based; conditions: dose 3-6 µM
[4] = Induction of cell cycle arrest in docetaxel-resistant human MDA-MB-231-DTR cells assessed as accumulation at subG1 phase at 5 uM incubated for 36 hrs by PI staining based flow cytometry analysis (reference value: 0.52%); assay type: functional
[5] = Induction of cell cycle arrest in docetaxel-resistant human MDA-MB-231-DTR cells assessed as accumulation at subG1 phase at 5 uM incubated for 24 hrs by PI staining based flow cytometry analysis (reference value: 0.41%); assay type: functional
[6] = Induction of cell cycle arrest in docetaxel-resistant human MDA-MB-231-DTR cells assessed as accumulation at S phase at 5 uM incubated for 36 hrs by PI staining based flow cytometry analysis (reference value: 11.57%); assay type: functional
[7] = Synergistic antiproliferative activity against docetaxel-resistant human MDA-MB-231-DTR cells assessed as combination index at 8 uM incubated for 72 hrs in presence of 2 uM of docetaxel by Chou-Talalay method; assay type: functional
[8] = Induction of cell cycle arrest in docetaxel-resistant human MDA-MB-231-DTR cells assessed as accumulation at G2/M phase at 5 uM incubated for 24 hrs by PI staining based flow cytometry analysis (reference value: 13.54%); assay type: functional
[9] = Induction of cell cycle arrest in docetaxel-resistant human MDA-MB-231-DTR cells assessed as accumulation at S phase at 5 uM incubated for 36 hrs by PI staining based flow cytometry analysis (reference value: 10.56%); assay type: functional
[10] = Induction of cell cycle arrest in docetaxel-resistant human MDA-MB-231-DTR cells assessed as accumulation at G0/G1 phase at 5 uM incubated for 36 hrs by PI staining based flow cytometry analysis (reference value: 75.49%); assay type: functional
[11] = test system: MDA-MB-231; experiment: Antitumor activity against docetaxel-resistant human MDA-MB-231-DTR cells xenografted in BALB/c mouse assessed as downregulation of phosphorylated STAT3 level in tumor tissue at 10 mg/kg, ip daily for 12 days by Immunohistochemical analysis; assay type: functional, organism-based; conditions: time 12.0 day
[12] = Induction of cell cycle arrest in docetaxel-resistant human MDA-MB-231-DTR cells assessed as accumulation at S phase at 2.5 uM incubated for 36 hrs by PI staining based flow cytometry analysis (reference value: 11.57%); assay type: functional
[13] = test system: MDA-MB-231; experiment: Antitumor activity against docetaxel-resistant human MDA-MB-231-DTR cells xenografted in BALB/c mouse assessed as downregulation of vimentin level in tumor tissue at 10 mg/kg, ip daily for 12 days by Immunohistochemical analysis; assay type: functional, organism-based; conditions: time 12.0 day
[14] = Induction of cell cycle arrest in docetaxel-resistant human MDA-MB-231-DTR cells assessed as accumulation at G2/M phase at 10 uM incubated for 36 hrs by PI staining based flow cytometry analysis (reference value: 13.16%); assay type: functional
[15] = test system: MDA-MB-231; experiment: Inhibition of cell migration in docetaxel-resistant human MDA-MB-231-DTR cells assessed as downregulation of vimentin expression level at 3 to 6 uM incubated for 24 hrs by Western blot analysis; assay type: functional, cell-based; conditions: dose 3-6 µM
[16] = Synergistic antiproliferative activity against docetaxel-resistant human MDA-MB-231-DTR cells assessed as combination index at 8 uM incubated for 72 hrs in presence of 4 uM of docetaxel by Chou-Talalay method; assay type: functional
[17] = Synergistic antiproliferative activity against docetaxel-resistant human MDA-MB-231-DTR cells assessed as combination index at 2 uM incubated for 72 hrs in presence of 1 uM of docetaxel by Chou-Talalay method; assay type: functional
[18] = test system: MDA-MB-231; experiment: Induction of cell cycle arrest at G2/M phase in docetaxel-resistant human MDA-MB-231-DTR cells assessed as downregulation of Cdc25C expression level at 2.5 to 10 uM incubated for 36 hrs by Western blot analysis; assay type: functional, cell-based; conditions: dose 2.5-10 µM
[19] = test system: MDA-MB-231; experiment: Induction of apoptosis in docetaxel-resistant human MDA-MB-231-DTR cells assessed as upregulation of cleaved-PARP expression level at 2.5 to 10 uM incubated for 48 hrs by Western blot analysis; assay type: functional, cell-based; conditions: dose 2.5-10 µM
[20] = Synergistic antiproliferative activity against docetaxel-resistant human MDA-MB-231-DTR cells assessed as combination index at 4 uM incubated for 72 hrs in presence of 1 uM of docetaxel by Chou-Talalay method; assay type: functional
[21] = test system: MDA-MB-231; experiment: Induction of cell cycle arrest at G2/M phase in docetaxel-resistant human MDA-MB-231-DTR cells assessed as upregulation of Chk2 phosphorylation at T68 at 2.5 to 10 uM incubated for 36 hrs by Western blot analysis; assay type: functional, cell-based; conditions: dose 2.5-10 µM
[22] = test system: MDA-MB-231; experiment: Induction of cell cycle arrest at G2/M phase in docetaxel-resistant human MDA-MB-231-DTR cells assessed as downregulation of c-Myc expression level at 2.5 to 10 uM incubated for 36 hrs by Western blot analysis; assay type: functional, cell-based; conditions: dose 2.5-10 µM
[23] = Induction of cell cycle arrest in docetaxel-resistant human MDA-MB-231-DTR cells assessed as accumulation at S phase at 5 uM incubated for 24 hrs by PI staining based flow cytometry analysis (reference value: 10.56%); assay type: functional
[24] = Induction of cell cycle arrest in docetaxel-resistant human MDA-MB-231-DTR cells assessed as accumulation at subG1 phase at 5 uM incubated for 12 hrs by PI staining based flow cytometry analysis (reference value: 0.41%); assay type: functional
[25] = Induction of cell cycle arrest in docetaxel-resistant human MDA-MB-231-DTR cells assessed as accumulation at G0/G1 phase at 2.5 uM incubated for 36 hrs by PI staining based flow cytometry analysis (reference value: 74.77%); assay type: functional
[26] = Induction of apoptosis in docetaxel-resistant human MDA-MB-231-DTR cells assessed as increase in total cell death at 5 uM incubated for 48 hrs by Annexin V-FITC and PI staining based flow cytometry; assay type: functional

In the case of `O=C(NCCc1c[nH]c2ccccc12)c1cc2c([nH]c3ccccc32)c(C(=O)c2ccc(Br)cc2)n1`, the CI [1] is reported as 0.66, the inhibition [2] is reported as “Dose-Dependent Effect” and the inhibition [3] is reported as “Active”. It also gave an Activity [4] of 1.81%, an Activity [5] of 1.75% and an Activity [6] of 20.82%. For the same compound, the CI [7] was 0.45, the Activity [8] was 21.18% and the Activity [9] was 14.21%. The Activity [10] was 55.56%, the Activity [11] was “Active” and the Activity [12] was 12.13%. The Activity [13] was “Active”, the Activity [14] was 29.72% and the inhibition [15] was “Active”. The CI [16] was 0.32, the CI [17] was 0.26 and the Activity [18] was “Active”. The Activity [19] was “Active”, the CI [20] was 0.38 and the Activity [21] was “Active”. The Activity [22] was “Active”, the Activity [23] was 18.28% and the Activity [24] was 0.82%. For the same compound, the Activity [25] was 62.36% and the Activity [26] was 18.79%.
